Test systems include SF-268; PC-3; UACC-62; UACC-257; LOX IMVI; SK-MEL-28; HT-29; HOP-62; HL-60; M14; ACHN; Malme-3M; A498; SF-539; HCC 2998; SK-OV-3; SNB-19; MDA-N; NCI-H226; SK-MEL-5.
Holding throughout (experiment): NCI-60 cell line screen, 48 h

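1) Cells in 96-well plates. 2) Compound, 48 h, 5 concentrations. 3) Linear interpolation between surrounding doses. 4) Unreached endpoint = highest concentration. GI50 = concentration required for 50% inhibition of growth.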 Active and inactive are the calls of the source. Rule as the data show it: active = GI50 up to about 1.1 µM and inactive = higher.

As for `COc1ccc(C(=O)N(C(=S)OCCOc2ccccc2)c2ccccc2)cc1`, the GI50 with SF-268 was 44 µM (inactive); with PC-3, 35.4 µM (inactive); in the assay on UACC-62, 48 µM (inactive); in the assay with UACC-257, 34.8 µM (inactive); in the assay on LOX IMVI, 52 µM (inactive); in the assay with SK-MEL-28, > 100 µM (inactive). Further, the GI50 with HT-29 is 40.4 µM (inactive); in the assay on HOP-62, 71.3 µM (inactive); with HL-60 it was 20.2 µM (inactive); in the assay on M14, 43.3 µM (inactive); with ACHN, 44.9 µM (inactive); in the assay on Malme-3M, 28.4 µM (inactive). The GI50 is 18.4 µM (inactive) with A498; 40.3 µM (inactive) in the assay with SF-539; 34.4 µM (inactive) in the assay on HCC 2998; 52.7 µM (inactive) in the assay on SK-OV-3; 83.8 µM (inactive) in the assay on SNB-19; 35.1 µM (inactive) in the assay on MDA-N.

For the molecule `O=C(C(=O)n1ccc2ccccc21)n1ccc2ccccc21`, the GI50 was 84.7 µM (inactive) with SF-268; > 100 µM (inactive) in the assay with PC-3; > 100 µM (inactive) with NCI-H226; 57.9 µM (inactive) with UACC-62; > 100 µM (inactive) in the assay on UACC-257; > 100 µM (inactive) in the assay with LOX IMVI. For the same molecule, the GI50 was > 100 µM (inactive) in the assay on SK-MEL-28; > 100 µM (inactive) with HT-29; 99.3 µM (inactive) with HOP-62; > 100 µM (inactive) in the assay with SK-MEL-5; > 100 µM (inactive) with ACHN; > 100 µM (inactive) in the assay on Malme-3M. Besides, the GI50 with A498 is > 100 µM (inactive); in the assay on SF-539, 37 µM (inactive); in the assay on HCC 2998, > 100 µM (inactive); in the assay with SK-OV-3, 48.3 µM (inactive); in the assay with SNB-19, 54.6 µM (inactive); in the assay on MDA-N, > 100 µM (inactive).

`C=CCNC1=C2C[C@@H](C)C[C@@H](OC)[C@H](OC(=O)CN(C)C)[C@H](C)/C=C(\C)[C@@H](OC(N)=O)[C@H](OC)/C=C\C=C(/C)C(=O)NC(=CC1=O)C2=O`: the GI50 in the assay on SF-268 is 2.54 µM (inactive); with PC-3, 0.0495 µM (active); with UACC-62, 0.0467 µM (active); in the assay with UACC-257, 0.0748 µM (active); in the assay on LOX IMVI, 0.0641 µM (active); in the assay on SK-MEL-28, 0.0897 µM (active). In addition, the GI50 in the assay with HT-29 is < 0.01 µM (active); with HOP-62, 0.0604 µM (active); in the assay on SK-MEL-5, 0.0538 µM (active); in the assay with HL-60, 0.406 µM (active); with M14, 0.0485 µM (active); in the assay with ACHN, 0.802 µM (active). In addition, the GI50 was 0.0409 µM (active) in the assay with Malme-3M; 0.262 µM (active) with A498; 0.071 µM (active) in the assay on SF-539; 0.0434 µM (active) with HCC 2998; 0.0279 µM (active) in the assay with SK-OV-3; 0.585 µM (active) in the assay with SNB-19. Moreover, the GI50 with MDA-N was 0.0281 µM (active).

Consider `O=C(O)CCC/N=C(\C(=N\CCCC(=O)O)c1ccccc1)c1ccccc1`, for which the GI50 with SF-268, in the assay on PC-3, in the assay with NCI-H226, with UACC-62, in the assay with UACC-257 and in the assay on LOX IMVI was > 100 µM (inactive) throughout. In addition, the GI50 with SK-MEL-28, in the assay on HOP-62, in the assay with M14, in the assay on ACHN, in the assay on A498 and with HCC 2998 was > 100 µM (inactive) in each case. Also, the GI50 with SK-OV-3, with SNB-19 and in the assay on MDA-N was > 100 µM (inactive) in each case.

Take `O=C(/C=C/c1ccccc1)c1cc(Br)ccc1O`: the GI50 was 16.9 µM (inactive) in the assay on SF-268; 17.1 µM (inactive) with PC-3; 12.9 µM (inactive) in the assay on NCI-H226; 13.9 µM (inactive) in the assay on UACC-62; 14 µM (inactive) in the assay with UACC-257; 12.2 µM (inactive) in the assay with LOX IMVI. Besides, the GI50 in the assay with SK-MEL-28 is 15.5 µM (inactive); with HT-29, 16.6 µM (inactive); in the assay with HOP-62, 20.1 µM (inactive); in the assay with SK-MEL-5, 15.3 µM (inactive); with HL-60 it was 4.06 µM (inactive); in the assay on M14, 24 µM (inactive). In addition, the GI50 in the assay with ACHN is 15.1 µM (inactive); with A498 it was 13.8 µM (inactive); in the assay with HCC 2998, 17.5 µM (inactive); in the assay with SK-OV-3, 20 µM (inactive); in the assay on SNB-19, 17.1 µM (inactive); in the assay with MDA-N it was 15 µM (inactive).

Consider `O=C(O)C1=C/C(=C(/c2ccccc2)c2cc(C(=O)O)c(O)c3ccccc23)c2ccccc2C1=O`, for which the GI50 with SF-268, in the assay on PC-3, in the assay with NCI-H226, with UACC-62, with UACC-257 and in the assay with SK-MEL-28 was > 100 µM (inactive) in each case. Also, the GI50 was > 100 µM (inactive) in the assay on HT-29; > 100 µM (inactive) in the assay with HOP-62; > 100 µM (inactive) in the assay on SK-MEL-5; < 0.01 µM (active) in the assay on HL-60; > 100 µM (inactive) in the assay on M14; > 100 µM (inactive) in the assay with ACHN. The GI50 in the assay on Malme-3M, in the assay on A498, in the assay with SF-539, in the assay on HCC 2998, in the assay with SK-OV-3 and in the assay with SNB-19 was > 100 µM (inactive) each time. Further, the GI50 with MDA-N was > 100 µM (inactive).

On to `NCCCCNCCCNC(=O)c1csc(-c2nc(CCN)sc2Cl)n1`, for which the GI50 in the assay on SF-268, with PC-3, in the assay with NCI-H226, in the assay on UACC-62, in the assay with UACC-257 and in the assay with SK-MEL-28 was > 100 µM (inactive) each time. For the same molecule, the GI50 in the assay on HT-29, in the assay with HOP-62, with SK-MEL-5, with HL-60, with M14 and in the assay with ACHN was > 100 µM (inactive) throughout. Also, the GI50 in the assay with Malme-3M is > 100 µM (inactive); with A498 it was > 100 µM (inactive); with SF-539 it was > 100 µM (inactive); in the assay with HCC 2998, 70.8 µM (inactive); in the assay on SK-OV-3, > 100 µM (inactive); in the assay with SNB-19 it was > 100 µM (inactive). The GI50 in the assay on MDA-N was > 100 µM (inactive).

Turning to `COc1ccc(Cc2c(N)[nH]c(=O)n(C)c2=O)cc1`, the GI50 in the assay on SF-268 was 34.6 µM (inactive); in the assay on PC-3, 97.3 µM (inactive); with NCI-H226, > 100 µM (inactive); in the assay on UACC-62, > 100 µM (inactive); in the assay with UACC-257, > 100 µM (inactive); in the assay with LOX IMVI, 56 µM (inactive). Further, the GI50 in the assay on SK-MEL-28 is > 100 µM (inactive); in the assay on HT-29, 47.5 µM (inactive); in the assay with HOP-62 it was 31.1 µM (inactive); with SK-MEL-5 it was > 100 µM (inactive); in the assay on M14 it was > 100 µM (inactive); with ACHN it was > 100 µM (inactive). For the same molecule, the GI50 in the assay on Malme-3M, with A498, in the assay on SF-539, in the assay with HCC 2998, in the assay with SK-OV-3 and in the assay with SNB-19 was > 100 µM (inactive) in each case. In addition, in the assay on MDA-N, the GI50 was > 100 µM (inactive).

Source of the values: ChEMBL document CHEMBL1201862, “PubChem BioAssay data set” (2004).
